{"source": "patent US20260335282A1", "about": "“NOVEL 3-ARYLIDENE-2-INDOLINONE DERIVATIVES FOR THERAPEUTIC USE” (ISTANBUL UNIVERSITESI REKTORLUGU, priority 2022, published 2026)", "assay_type_in_all_cases": "cell-based, human", "key": {"MDA-MB-231 cells": {"test_system": "MDA-MB-231 cells", "assay": "MTT cytotoxicity, breast cancer cells MDA-MB-231", "settings": "MTT, no * mark (incubation time not given)", "summary_of_the_method": "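Cells seeded at 5000 per well were exposed next day to compounds at 0.1, 1, 5 and 10 μM for 48 and/or 72 h. MTT (5 mg/ml) was added for 4 h, formazan dissolved in DMSO, and absorbance read at 570 nm against 630 nm. IC50 came from dose-response curves of % viability versus DMSO controls.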"}, "HT-29 cells": {"test_system": "HT-29 cells", "assay": "MTT cytotoxicity, colon cancer cells HT-29", "settings": "MTT", "summary_of_the_method": "(§1)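 Cells were seeded at 5000 per well and treated next day with compound at 0.1, 1, 5 and 10 μM (final) for 48 and/or 72 h, with matched DMSO controls. MTT was added for 4 h and formazan was dissolved in DMSO and read at 570/630 nm. % viability against control gave IC50 from dose-response curves.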"}, "HCT-116 cells": {"test_system": "HCT-116 cells", "assay": "MTT cytotoxicity, colon cancer cells HCT-116", "summary_of_the_method": "as §1"}, "[1]": {"test_system": "general tyrosine kinase activity in MIA PaCa-2 pancreas cancer cells", "assay": "General tyrosine kinase activity (ELISA) in MIAPaCa-2 cells", "settings": "72 hours, IC50 concentration", "procedure": "Takara Universal Tyrosine Kinase Assay Kit is used to determine the effects of 11 2-indolinone compounds (Y1, Y2, Y3, Y4, Y5, Y8, […], […], Y21, Y23, 20C, 22C) on general tyrosine kinase activity in cancer cells. Cells are seeded in 6-well plates (4.10^5 cells/well) and the IC50 concentration of each selected molecule is performed to the cells for 48 or 72 hours. Cells in the control group are incubated with medium only. At the end of the incubation period, the cells in each well are washed with PBS and cells are removed from the wells using a cell scraper via 1 ml of the extraction buffer in the kit. The cell lysate is transferred to ependorf tubes and centrifuged at 10.000 g for 10 minutes at +4° C. and the supernatant is used as a sample for activity determination. After the extracts obtained from the control and experimental groups are diluted 1:25, 40 μl extracts is transferred to two wells in the 96-well plate in the kit. In addition, the standard solution in the kit is diluted according to the kit instructions and each concentration is transferred 40 μl into three wells. 10 μl of 40 mM ATP-2Na solution is added to all wells and the plate is incubated at 37° C. for 30 minutes. After incubation, all wells are washed 4 times with wash buffer. 100 μl of blocking solution is added to each well and incubated again at 37° C. for 30 minutes. After incubation, the liquid in the wells is discarded and 50 μl of anti-phosphotyrosine-HRP solution is added to each well and incubated at 37° C. for 30 minutes. The wells are washed again four times with wash buffer and 100 μl of HRP-substrate solution (TMBZ) is added to each well and incubated at 37° C. for 15 minutes. The reaction is finished by adding 100 μl of stop solution to each well and the optical density in each well is measured at 405 nm with a microplate reader (BioTek, USA). The tyrosine kinase activity in each sample is calculated from the standard curve obtained from the absorbance values of the standard solutions with the kit (Chan W Y, Lau P M, Yeung K W, Kong S K. The second generation tyrosine kinase inhibitor dasatinib induced eryptosis in human erythrocytes—An in vitro study. Toxicol Lett. 2018; 295:10-21). This activity is normalized compared to the control group by dividing by the amount of protein in each sample.\nThe effects of 11 2-indolinone compounds (Y1, Y2, Y3, Y4, Y5, Y8, Y14, Y21, Y23, 20C and 22C) having the structure of formula (5), which are prominent with their cytotoxicity in A498, MIAPaCa-2 and HCT-116 cancer cell lines and nontoxic properties in healthy cells, on general tyrosine kinase activity in cancer cells are determined."}, "[2]": {"settings": "read-out: IC50, MDA-MB-231 (breast)"}, "[3]": {"settings": "no * mark (incubation time not specified)"}}, "note": "pIC50: −log10 of the molar value. Entries after “also recorded” stand apart in the source; their conditions may differ. Read-outs that look alike come from different tables or passages of the source.", "data": [{"compound": "O=C1/C(=C\\c2c[nH]c3ccccc23)c2ccccc2N1Cc1ccccc1", "note": "[Y1]", "values": [{"measurement": "pIC50", "setting": "MDA-MB-231 cells; [2]", "value": 5.01}, {"measurement": "pIC50", "setting": "HT-29 cells; [3]", "value": 5.74}, {"measurement": "pIC50", "setting": "HCT-116 cells; [3]", "value": 5.58}, {"measurement": "general tyrosine kinase activity compared to control", "setting": "[1]", "value": "significantly decreased; also recorded: decreased the general tyrosine kinase activity"}]}, {"compound": "Cc1ccc2c(c1)/C(=C/c1c[nH]c3ccccc13)C(=O)N2Cc1ccccc1", "note": "[Y3]", "values": [{"measurement": "pIC50", "setting": "MDA-MB-231 cells; Homo sapiens, MDA-MB-231, read-out: IC50, MDA-MB-231 (breast)", "value": 5.45}, {"measurement": "pIC50", "setting": "HT-29 cells; Homo sapiens, HT-29, no * mark (incubation time not given)", "value": 5.61}, {"measurement": "pIC50", "setting": "HCT-116 cells; Homo sapiens, HCT-116, no * mark (incubation time not given)", "value": 5.69}, {"measurement": "general tyrosine kinase activity compared to control", "setting": "[1]", "value": "significantly decreased; also recorded: decreased the general tyrosine kinase activity"}]}, {"compound": "O=C1/C(=C\\c2c[nH]c3ccccc23)c2cc(OC(F)(F)F)ccc2N1Cc1ccccc1", "note": "[Y4]", "values": [{"measurement": "pIC50", "setting": "MDA-MB-231 cells; [2]", "value": "< 5.00"}, {"measurement": "pIC50", "setting": "HT-29 cells; [3]", "value": 5.76}, {"measurement": "pIC50", "setting": "HCT-116 cells; [3]", "value": 6.24}, {"measurement": "general tyrosine kinase activity compared to control", "setting": "[1]", "value": "significantly decreased; also recorded: decreased the general tyrosine kinase activity"}]}, {"compound": "Cc1ccc2c(c1)/C(=C/c1c[nH]c3ccccc13)C(=O)N2Cc1cccc(F)c1", "note": "[Y8]", "values": [{"measurement": "pIC50", "setting": "MDA-MB-231 cells; [2]", "value": 5.13}, {"measurement": "pIC50", "setting": "HT-29 cells; [3]", "value": 5.30}, {"measurement": "pIC50", "setting": "HCT-116 cells; [3]", "value": 5.92}, {"measurement": "general tyrosine kinase activity compared to control", "setting": "[1]", "value": "significantly decreased; also recorded: decreased the general tyrosine kinase activity"}]}]}
